In patent publication US20070037883A1, “Therapeutic compositions” (priority 2003, published 2007):
Entries after “also recorded” stand apart in the source; their conditions may differ.

Assays:
[1] = molecular target: T1, Nox4-containing NADPH-oxidase in mouse endothelium (Mus musculus, UniProt Q9JHI8); assay: NADPH-driven NADPH-oxidase activity in mouse endothelium; format: cell-based; conditions: suramin ≦100 μM
T1 construct: Nox4-containing NADPH-oxidase in mouse vascular smooth muscle cells (VSMC, a) and endothelium; endogenous in cells; host or cells: mouse endothelium (preparation not described)
T1 sequence (Q9JHI8 1-578): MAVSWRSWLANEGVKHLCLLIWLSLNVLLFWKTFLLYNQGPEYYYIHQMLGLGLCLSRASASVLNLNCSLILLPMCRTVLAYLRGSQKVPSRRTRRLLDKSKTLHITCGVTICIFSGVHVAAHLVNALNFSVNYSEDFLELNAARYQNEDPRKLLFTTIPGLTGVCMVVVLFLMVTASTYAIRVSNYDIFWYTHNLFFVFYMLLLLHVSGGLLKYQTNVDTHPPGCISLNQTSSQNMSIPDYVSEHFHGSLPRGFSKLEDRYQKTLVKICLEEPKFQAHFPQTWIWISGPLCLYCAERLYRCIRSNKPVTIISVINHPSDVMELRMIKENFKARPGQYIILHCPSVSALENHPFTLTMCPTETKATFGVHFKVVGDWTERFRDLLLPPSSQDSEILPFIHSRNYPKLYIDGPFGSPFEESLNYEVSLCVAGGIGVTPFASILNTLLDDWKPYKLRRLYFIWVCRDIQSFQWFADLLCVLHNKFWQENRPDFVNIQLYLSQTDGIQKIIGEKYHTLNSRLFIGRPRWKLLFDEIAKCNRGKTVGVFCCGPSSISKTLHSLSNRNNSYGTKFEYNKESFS
T1 sequence (Q61462 1-192 partner): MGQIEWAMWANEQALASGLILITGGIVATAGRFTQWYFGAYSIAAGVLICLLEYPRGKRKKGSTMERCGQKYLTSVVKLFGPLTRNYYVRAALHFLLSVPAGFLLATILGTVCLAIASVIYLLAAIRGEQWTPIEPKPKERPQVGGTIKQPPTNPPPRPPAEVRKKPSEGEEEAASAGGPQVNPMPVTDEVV

[2] = system: cerebral artery NADPH-oxidase activity; assay: NADPH-induced superoxide production by the rat basilar artery in vitro after subarachnoid haemorrhage, chronic in vivo treatment; set-up: species or system Sprague-Dawley rats; conditions: FIG. 13
Procedure: Subarachnoid hemorrhage: On Day 0, rats are briefly anaesthetized (pentobarbital 50 mg/kg ip) and an osmotic minipump containing either saline or suramin is implanted subcutaneously. The dose rate of suramin is 300 mg/kg per 7 days. On Day 5, rats are again anaesthetized and 0.3 ml of blood is withdrawn from a femoral artery and injected into the cerebrospinal fluid around the ventral surface of the brain via the cisterna magna. In some control rats, saline is injected into the cerebrospinal fluid instead of arterial blood. The rat is allowed to recover for a further 2 days, and is then again anaesthetized on Day 7 for study.
On Day 0, rats were briefly anaesthetized and an osmotic minipump containing either saline or suramin was implanted subcutaneously. The dose rate of suramin was 30 or 300 mg/kg per 7 days. On Day 5, rats were again anaesthetized and 0.3 ml of blood was withdrawn from a femoral artery and injected into the cerebrospinal fluid around the ventral surface of the brain via the cisterna magna. In some rats, saline was injected into the cerebrospinal fluid instead of arterial blood. […]
The brain was removed and the basilar artery was isolated and then incubated with 5 micromolar lucigenin, 100 micromolar NADPH and 3 millimolar diethyldithiocarbamate. Superoxide production was measured using lucigenin-enhanced chemiluminescence.

[3] = system: angiotensin II-induced hypertension; assay: Angiotensin II-induced hypertension, arterial blood pressure; format: in vivo, rats
Procedure: Measurement of arterial blood pressure: Rats are briefly anaesthetized (ketamine 80 mg/kg ip plus xylazine 10 mg/kg ip) and a saline-filled cannula is inserted in a femoral artery. The cannula is connected to a pressure transducer and a chart recorder. When arterial pressure is observed to be stable (within 5 minutes) mean arterial pressure is calculated and recorded.
Angiotensin II-induced experimental hypertension: On Day 0, rats are briefly anaesthetized (ketamine 80 mg/kg ip plus xylazine 10 mg/kg ip) and an osmotic minipump containing either saline or suramin is implanted subcutaneously. The dose rate of suramin is 300 mg/kg per 14 days. On Day 7, rats are again anaesthetized and another minipump containing saline or angiotensin II is implanted subcutaneously. The dose rate of angiotensin II is 5 mg/kg per 7 days. On Day 14, each rat is again anaesthetized and a cannula was inserted into a femoral artery for measurement of blood pressure. Angiotensin II causes a large increase in mean arterial pressure (of approx. 60-80 mmHg) in control rats.
On Day 0, rats were briefly anaesthetized and an osmotic minipump containing either saline or suramin was implanted subcutaneously. The dose rate of suramin was 300 mg/kg per 14 days. On Day 7, rats were again anaesthetized and another minipump containing saline or angiotensin II was implanted subcutaneously. The dose rate of angiotensin II was 5 mg/kg per 7 days. On Day 14, each rat was again anaesthetized and a cannula was inserted into a femoral artery for measurement of blood pressure. Angiotensin II caused a large increase in blood pressure in rats pretreated with saline. In contrast, the increase in blood pressure by angiotensin II was prevented by approximately 60% in rats pretreated with suramin.

Cc1ccc(C(=O)Nc2ccc(S(=O)(=O)O)c3cc(S(=O)(=O)O)cc(S(=O)(=O)O)c23)cc1NC(=O)c1cccc(NC(=O)Nc2cccc(C(=O)Nc3cc(C(=O)Nc4ccc(S(=O)(=O)O)c5cc(S(=O)(=O)O)cc(S(=O)(=O)O)c45)ccc3C)c2)c1 [suramin] was tested, and the “inhibition of 100 μM NADPH-driven activity of Nox4-containing NADPH-oxidase in endothelium” value [1] was “fully inhibits”, the “NADPH (100 μM)-driven superoxide production by isolated basilar artery, control rats” value ([2]; suramin 30-300 mg/kg over 7 days, control rats without SAH) was “no effect” and the “NADPH-driven superoxide production by basilar artery 2 days after SAH” value ([2]; suramin 30 or 300 mg/kg per 7 days s.c. minipump, rats subjected to SAH) was “not different from levels measured in non-operated control rats; also recorded: prevents the increase”. For the same compound, the “mean arterial blood pressure of control rats” value ([3]; suramin 150 mg/kg s.c. per week for 2 weeks, no angiotensin II, ketamine-xylazine anaesthesia, FIG. 15) was “no effect”, the “prevention of the increase in blood pressure by angiotensin II” value ([3]; suramin 300 mg/kg per 14 days, angiotensin II 5 mg/kg per 7 days, Day 14) was “approximately 60%” and the “increase in arterial pressure during angiotensin II administration (in words)” value ([3]; suramin 1 week prior to and during 1 week of angiotensin II 5 mg/kg s.c., FIG. 15) was “smaller increase”.
